{"source": "patent US6737383B1", "about": "“Herbicidal oxadiazolidines” (priority 1999, dated 2004)", "key": {"pigweed": {"test_system": "pigweed", "test": "Test B pre/postemergence pigweed", "assay_type": "in vivo, Amaranthus retroflexus", "method_in_brief": "(§1)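 Test chemicals in a non-phytotoxic solvent mixture with surfactant were sprayed preemergence onto planted seeds and postemergence onto plants 2 to 18 cm tall (1- to 4-leaf stage). After twelve to sixteen days in a greenhouse, injury was visually rated against untreated controls from 0 (no effect) to 10 (complete control).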"}, "rice": {"test_system": "rice", "test": "Test B flood test rice", "assay_type": "in vivo, Oryza sativa", "method_in_brief": "(§2)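 Read-out is a visual response score from 0 (no effect) to 10 (complete control), assigned by comparison with untreated controls. Treatment was applied at the 2-leaf stage, and plants stayed in the greenhouse for twelve to sixteen days before scoring.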"}, "bamyardgrass": {"test_system": "bamyardgrass", "test": "Test B flood test barnyardgrass", "assay_type": "in vivo, Echinochloa crus-galli", "settings": "for Plant response rating, Barnyardgrass: scale 0 to 10, 0 is no effect, 10 is complete control; for Barnyardgrass plant response rating: scale of 0 to 10 where 0 is no effect and 10 is complete control", "method_in_brief": "as §2"}, "sugar beet": {"test_system": "sugar beet", "test": "Test B pre/postemergence sugar beet", "assay_type": "in vivo, Beta vulgaris", "method_in_brief": "as §1"}, "smallflower flatsedge": {"test_system": "smallflower flatsedge", "test": "Test B flood test smallflower flatsedge", "assay_type": "in vivo, Cyperus difformis", "method_in_brief": "as §2"}, "surinam grass": {"test_system": "surinam grass", "test": "Test B pre/postemergence surinam grass", "assay_type": "in vivo, Brachiaria decumbens", "method_in_brief": "as §1"}, "bedstraw": {"test_system": "bedstraw", "test": "Test B pre/postemergence bedstraw", "assay_type": "in vivo, Galium aparine", "settings": "Postemergence; for Plant response rating, Bedstraw: scale 0 to 10, 0 is no effect, 10 is complete control; for Bedstraw plant response rating: scale of 0 to 10 where 0 is no effect and 10 is complete control", "method_in_brief": "as §1"}, "soybean": {"test_system": "soybean", "test": "Test B pre/postemergence soybean", "assay_type": "in vivo, Glycine max", "method_in_brief": "as §1"}, "purple nutsedge": {"test_system": "purple nutsedge", "test": "Test B pre/postemergence purple nutsedge", "assay_type": "in vivo, Cyperus rotundus", "method_in_brief": "as §1"}, "blackgrass": {"test_system": "blackgrass", "test": "Test B pre/postemergence blackgrass", "assay_type": "in vivo, Alopecurus myosuroides", "method_in_brief": "as §1"}, "wild oat": {"test_system": "wild oat", "test": "Test B pre/postemergence wild oat", "assay_type": "in vivo, Avena fatua", "method_in_brief": "as §1"}, "rape": {"test_system": "rape", "test": "Test B pre/postemergence rape", "assay_type": "in vivo, Brassica napus", "method_in_brief": "as §1"}, "cocklebur": {"test_system": "cocklebur", "test": "Test B pre/postemergence cocklebur", "assay_type": "in vivo, Xanthium strumarium", "method_in_brief": "as §1"}, "morningglory": {"test_system": "morningglory", "test": "Test B pre/postemergence morningglory", "assay_type": "in vivo, Ipomoea hederacea", "method_in_brief": "as §1"}, "corn": {"test_system": "corn", "test": "Test B pre/postemergence corn", "assay_type": "in vivo, Zea mays", "method_in_brief": "as §1"}, "velvetleaf": {"test_system": "velvetleaf", "test": "Test B pre/postemergence velvetleaf", "assay_type": "in vivo, Abutilon theophrasti", "method_in_brief": "as §1"}, "[1]": {"settings": "Postemergence, Rate 250 g/ha, scale 0 to 10, 0 is no effect, 10 is complete control"}, "[2]": {"settings": "Postemergence, Rate 500 g/ha, scale of 0 to 10 where 0 is no effect and 10 is complete control"}, "[3]": {"settings": "Preemergence, Rate 62 g/ha, scale 0 to 10 (0 no effect, 10 complete control)"}, "[4]": {"settings": "Preemergence, Rate 125 g/ha, scale of 0 to 10 where 0 is no effect and 10 is complete control"}, "[5]": {"settings": "Preemergence, Rate 250 g/ha, scale 0 to 10, 0 is no effect, 10 is complete control"}, "[6]": {"settings": "Preemergence, Rate 500 g/ha, scale 0 to 10, 0 is no effect, 10 is complete control"}, "[7]": {"settings": "Postemergence section (flood test species), Rate 500 g/ha, scale of 0 to 10 where 0 is no effect and 10 is complete control"}, "[8]": {"settings": "flood test species, listed under Postemergence, Rate 250 g/ha, scale 0 to 10, 0 is no effect, 10 is complete control"}, "[9]": {"settings": "Postemergence, Rate 125 g/ha, scale 0 to 10, 0 is no effect, 10 is complete control"}, "[10]": {"settings": "Preemergence, Rate 250 g/ha, scale of 0 to 10 where 0 is no effect and 10 is complete control"}, "[11]": {"settings": "Rate 62 g/ha, Postemergence, scale of 0 to 10 where 0 is no effect and 10 is complete control"}}}
{"smiles": "CSCCn1c(=O)on(C(=O)N(c2ccccc2)C(C)C)c1=O", "note": "[Compound 419]", "values": [{"measurement": "Plant response rating, Redroot pigweed", "setting": "pigweed; [1]", "result": 0}, {"measurement": "Redroot pigweed plant response rating", "setting": "pigweed; [2]", "result": 0}, {"measurement": "Plant response rating, Redroot pigweed", "setting": "pigweed; [3]", "result": 0}, {"measurement": "Plant response rating, Redroot pigweed", "setting": "pigweed; [4]", "result": 0}, {"measurement": "Redroot pigweed plant response rating", "setting": "pigweed; [5]", "result": 6}, {"measurement": "Redroot pigweed plant response rating", "setting": "pigweed; [6]", "result": 10}, {"measurement": "Rice plant response rating", "setting": "rice; [7]", "result": 2}, {"measurement": "Plant response rating, Rice", "setting": "rice; [8]", "result": 0}, {"measurement": "Plant response rating, Barnyardgrass", "setting": "bamyardgrass; Postemergence (flood test), Rate 125 g/ha", "result": 0}, {"measurement": "Barnyardgrass plant response rating", "setting": "bamyardgrass; Postemergence section (flood test species), Rate 500 g/ha", "result": 0}, {"measurement": "Barnyardgrass plant response rating", "setting": "bamyardgrass; Rate 62 g/ha, Postemergence (flood test species)", "result": 0}, {"measurement": "Plant response rating, Barnyardgrass", "setting": "bamyardgrass; flood test species, listed under Postemergence, Rate 250 g/ha", "result": 0}, {"measurement": "Plant response rating, Sugarbeets", "setting": "sugar beet; [1]", "result": 0}, {"measurement": "Sugarbeets plant response rating", "setting": "sugar beet; [2]", "result": 0}, {"measurement": "Plant response rating, Sugarbeets", "setting": "sugar beet; [3]", "result": 0}, {"measurement": "Plant response rating, Sugarbeets", "setting": "sugar beet; [4]", "result": 0}, {"measurement": "Sugarbeets plant response rating", "setting": "sugar beet; [5]", "result": 3}, {"measurement": "Sugarbeets plant response rating", "setting": "sugar beet; [6]", "result": 5}, {"measurement": "S. Flatsedge plant response rating", "setting": "smallflower flatsedge; [7]", "result": 3}, {"measurement": "Plant response rating, S. Flatsedge", "setting": "smallflower flatsedge; [8]", "result": 0}, {"measurement": "Plant response rating, B. signalgrass", "setting": "surinam grass; [9]", "result": 0}, {"measurement": "Plant response rating, B. signalgrass", "setting": "surinam grass; [1]", "result": 0}, {"measurement": "B. signalgrass plant response rating", "setting": "surinam grass; [2]", "result": 2}, {"measurement": "Plant response rating, B. signalgrass", "setting": "surinam grass; [3]", "result": 0}, {"measurement": "Plant response rating, B. signalgrass", "setting": "surinam grass; [4]", "result": 0}, {"measurement": "B. signalgrass plant response rating", "setting": "surinam grass; [10]", "result": 2}, {"measurement": "B. signalgrass plant response rating", "setting": "surinam grass; Preemergence, Rate 500 g/ha, scale of 0 to 10 where 0 is no effect and 10 is complete control", "result": 8}, {"measurement": "B. signalgrass plant response rating", "setting": "surinam grass; [11]", "result": 0}, {"measurement": "Plant response rating, Bedstraw", "setting": "bedstraw; Rate 125 g/ha", "result": 0}, {"measurement": "Plant response rating, Bedstraw", "setting": "bedstraw; Rate 250 g/ha", "result": 0}, {"measurement": "Bedstraw plant response rating", "setting": "bedstraw; Rate 500 g/ha", "result": 0}, {"measurement": "Bedstraw plant response rating", "setting": "bedstraw; Rate 62 g/ha", "result": 0}, {"measurement": "Plant response rating, Soybean", "setting": "soybean; [1]", "result": 3}, {"measurement": "Soybean plant response rating", "setting": "soybean; [2]", "result": 3}, {"measurement": "Plant response rating, Soybean", "setting": "soybean; [3]", "result": 0}, {"measurement": "Plant response rating, Soybean", "setting": "soybean; [4]", "result": 0}, {"measurement": "Soybean plant response rating", "setting": "soybean; [5]", "result": 0}, {"measurement": "Soybean plant response rating", "setting": "soybean; [6]", "result": 0}, {"measurement": "Plant response rating, Nutsedge", "setting": "purple nutsedge; [1]", "result": 0}, {"measurement": "Nutsedge plant response rating", "setting": "purple nutsedge; [2]", "result": 0}, {"measurement": "Plant response rating, Nutsedge", "setting": "purple nutsedge; [3]", "result": 0}, {"measurement": "Plant response rating, Nutsedge", "setting": "purple nutsedge; [4]", "result": 0}, {"measurement": "Nutsedge plant response rating", "setting": "purple nutsedge; [5]", "result": 0}, {"measurement": "Nutsedge plant response rating", "setting": "purple nutsedge; [6]", "result": 0}, {"measurement": "Plant response rating, Blackgrass", "setting": "blackgrass; [9]", "result": 0}, {"measurement": "Plant response rating, Blackgrass", "setting": "blackgrass; [1]", "result": 0}, {"measurement": "Blackgrass plant response rating", "setting": "blackgrass; [2]", "result": 4}, {"measurement": "Plant response rating, Blackgrass", "setting": "blackgrass; [3]", "result": 0}, {"measurement": "Plant response rating, Blackgrass", "setting": "blackgrass; [4]", "result": 0}, {"measurement": "Blackgrass plant response rating", "setting": "blackgrass; [10]", "result": 0}, {"measurement": "Blackgrass plant response rating", "setting": "blackgrass; [6]", "result": 3}, {"measurement": "Blackgrass plant response rating", "setting": "blackgrass; [11]", "result": 0}, {"measurement": "Wild oats plant response rating", "setting": "wild oat; [2]", "result": 0}, {"measurement": "Plant response rating, Wild oats", "setting": "wild oat; [3]", "result": 0}, {"measurement": "Plant response rating, Wild oats", "setting": "wild oat; [4]", "result": 0}, {"measurement": "Wild oats plant response rating", "setting": "wild oat; [5]", "result": 0}, {"measurement": "Wild oats plant response rating", "setting": "wild oat; [6]", "result": 2}, {"measurement": "Plant response rating, Rape", "setting": "rape; [1]", "result": 0}, {"measurement": "Rape plant response rating", "setting": "rape; [2]", "result": 0}, {"measurement": "Plant response rating, Rape", "setting": "rape; [3]", "result": 0}, {"measurement": "Plant response rating, Rape", "setting": "rape; [4]", "result": 0}, {"measurement": "Rape plant response rating", "setting": "rape; [5]", "result": 2}, {"measurement": "Rape plant response rating", "setting": "rape; [6]", "result": 2}, {"measurement": "Plant response rating, Cocklebur", "setting": "cocklebur; [9]", "result": 0}, {"measurement": "Plant response rating, Cocklebur", "setting": "cocklebur; [1]", "result": 0}, {"measurement": "Cocklebur plant response rating", "setting": "cocklebur; [2]", "result": 0}, {"measurement": "Plant response rating, Cocklebur", "setting": "cocklebur; [3]", "result": 0}, {"measurement": "Plant response rating, Cocklebur", "setting": "cocklebur; [4]", "result": 0}, {"measurement": "Cocklebur plant response rating", "setting": "cocklebur; [5]", "result": 0}, {"measurement": "Cocklebur plant response rating", "setting": "cocklebur; [6]", "result": 0}, {"measurement": "Cocklebur plant response rating", "setting": "cocklebur; [11]", "result": 0}, {"measurement": "Plant response rating, Morningglory", "setting": "morningglory; [1]", "result": 5}, {"measurement": "Morningglory plant response rating", "setting": "morningglory; [2]", "result": 5}, {"measurement": "Plant response rating, Morningglory", "setting": "morningglory; [3]", "result": 0}, {"measurement": "Plant response rating, Morningglory", "setting": "morningglory; [4]", "result": 0}, {"measurement": "Morningglory plant response rating", "setting": "morningglory; [5]", "result": 1}, {"measurement": "Morningglory plant response rating", "setting": "morningglory; [6]", "result": 2}, {"measurement": "Plant response rating, Corn", "setting": "corn; [9]", "result": 0}, {"measurement": "Plant response rating, Corn", "setting": "corn; [1]", "result": 0}, {"measurement": "Corn plant response rating", "setting": "corn; [2]", "result": 0}, {"measurement": "Plant response rating, Corn", "setting": "corn; [3]", "result": 0}, {"measurement": "Plant response rating, Corn", "setting": "corn; [4]", "result": 0}, {"measurement": "Corn plant response rating", "setting": "corn; [5]", "result": 0}, {"measurement": "Corn plant response rating", "setting": "corn; [6]", "result": 0}, {"measurement": "Corn plant response rating", "setting": "corn; [11]", "result": 0}, {"measurement": "Plant response rating, Velvetleaf", "setting": "velvetleaf; [1]", "result": 0}, {"measurement": "Velvetleaf plant response rating", "setting": "velvetleaf; [2]", "result": 2}, {"measurement": "Plant response rating, Velvetleaf", "setting": "velvetleaf; [3]", "result": 0}, {"measurement": "Plant response rating, Velvetleaf", "setting": "velvetleaf; [4]", "result": 0}, {"measurement": "Velvetleaf plant response rating", "setting": "velvetleaf; [5]", "result": 1}, {"measurement": "Velvetleaf plant response rating", "setting": "velvetleaf; [6]", "result": 4}]}
